From patent US20080090805A1, “CB-1 MODULATING COMPOUNDS AND THEIR USE” (ACADIA PHARMACEUTICALS INC., priority 2005, published 2008) come the findings set out here.

The target of the experiment is CB1 (mutant) (Homo sapiens, UniProt P21554). Description: R-SAT functional receptor assay, CB1 (mutant, truncated after amino acid 417). Format: cell-based. Particulars: R-SAT CB1; for IC50 / pIC50: receptor form (mutant or wild-type) not stated.
[1] abbreviates: Appendix A, read-out: pIC50 (converted).
[2] abbreviates: Appendix A, receptor form not stated, relative to SR141716 (100%), read-out: % Inhibition.

As usually defined, the pIC50 is −log10 of the IC50, conventionally taken in molar units. Read a high pIC50 as a low IC50. What is called % Inhibition is the percentage by which the read-out fell short of the control. The low end stands for a response near the control, the high end for a response far below the control.

Read-outs that look alike come from different tables or passages of the source.

CB1 (mutant), sequence (P21554 1-417, change not shown): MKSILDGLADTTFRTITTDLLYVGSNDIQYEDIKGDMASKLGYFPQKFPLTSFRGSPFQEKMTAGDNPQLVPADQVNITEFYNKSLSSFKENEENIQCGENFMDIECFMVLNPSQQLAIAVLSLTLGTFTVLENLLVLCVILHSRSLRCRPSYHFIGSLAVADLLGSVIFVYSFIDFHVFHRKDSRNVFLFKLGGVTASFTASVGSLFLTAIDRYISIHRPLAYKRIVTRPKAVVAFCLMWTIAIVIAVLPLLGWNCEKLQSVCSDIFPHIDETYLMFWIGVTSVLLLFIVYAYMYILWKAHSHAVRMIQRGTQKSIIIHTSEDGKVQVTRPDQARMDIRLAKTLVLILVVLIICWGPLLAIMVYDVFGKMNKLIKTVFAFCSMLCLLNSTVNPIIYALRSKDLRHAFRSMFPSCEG

Take `O=C(NCCc1ccccn1)c1ccc2c(c1)N=C(c1ccc(Cl)c(Cl)c1)c1ccccc1S2` [drawing 1077]: the IC50 under setting [1] was 31.6 nM. Besides, the Emax under setting [2] was found to be 93%.

Turning to `CCCC1=Nc2cc(C(=O)NCCCc3ccccc3)ccc2Sc2ccccc21` [drawing 763], under setting [1], the IC50 was 10 nM. Moreover, under setting [2], the Emax is 104%.

`O=C(NCCc1ccccc1)c1ccc2c(c1)N=C(c1ccccc1)c1ccccc1S2` [drawing 1023]: the IC50 under setting [1] is 25.1 nM. For the same molecule, the Emax under setting [2] worked out at 106%.

On to `CCOCCNC(=O)c1ccc2c(c1)N=C(c1ccc(Br)cc1)c1ccccc1S2` [drawing 1143], for which the IC50 under setting [1] was 39.8 nM. In addition, under setting [2], the Emax is 85%.

Turning to `O=C(NCc1cccc(Cl)c1)c1ccc2c(c1)N=C(N1CCCCC1)c1ccccc1[S+]2[O-]` (centres unmarked) [drawing 758], the IC50 under setting [1] was 100 nM. For the same molecule, the Emax under setting [2] was 71%.

Turning to `CCOCCNC(=O)c1ccc2c(c1)N=C(c1ccc(F)cc1)c1ccccc1S2` [drawing 596], under setting [1], the IC50 is 50.1 nM. Moreover, the Emax under setting [2] worked out at 94%.

Take `CCCNC(=O)c1ccc2c(c1)N=C(c1ccc(OC)cc1)c1ccccc1S2` [drawing 915]: under setting [1], the IC50 was 15.8 nM. The Emax under setting [2] came to 112%.

Take `CC(C)NC(=O)c1ccc2c(c1)N=C(c1ccc(Cl)cc1Cl)c1ccccc1S2`: under setting [2], the Emax was determined as 45%.

For `O=C(NCc1ccccc1Br)c1ccc2c(c1)N=C(c1ccccc1)c1ccccc1S2` [drawing 700], the IC50 under setting [1] is 79.4 nM. Besides, under setting [2], the Emax turned out to be 83%.

As to `CCOC(=O)N1CCC(NC(=O)c2ccc3c(c2)N=C(CC(C)C)c2ccccc2S3)CC1`, under setting [1], the IC50 was 398 nM. The Emax under setting [2] was 89%.

For the molecule `CCCNC1=Nc2cc(C(=O)NN3CCCCC3)ccc2Sc2ccccc21`, under setting [1], the IC50 is 1580 nM. The Emax under setting [2] was 89%.

`O=C(NCc1cccc(Cl)c1)c1ccc2c(c1)N=C(c1ccc(F)cc1)c1ccccc1S2` [drawing 701]: the IC50 under setting [1] is 7.94 nM. The Emax under setting [2] turned out to be 103%.

As to `O=C(NCc1ccc(F)cc1)c1ccc2c(c1)N=C(c1ccc(Cl)cc1)c1ccccc1S2(=O)=O` [drawing 961], under setting [1], the IC50 is 20 nM. Moreover, the Emax under setting [2] came to 108%.

On to `O=C(NC1CCCC1)c1ccc2c(c1)N=C(c1cccc(Cl)c1)c1ccccc1S2` [drawing 702], for which, under setting [1], the IC50 is 79.4 nM. For the same molecule, under setting [2], the Emax amounted to 96%.

With `O=C(NN1CCCCC1)c1ccc2c(c1)N=C(c1ccc(Cl)c(F)c1)c1ccccc1S2` [drawing 991], the IC50 under setting [1] is 25.1 nM. Under setting [2], the Emax amounted to 110%.

As to `O=C(NC1CCCC1)c1ccc2c(c1)N=C(c1ccccn1)c1ccccc1S2`, the IC50 under setting [1] was 158 nM. The Emax under setting [2] is 81%.

`O=C(NCc1cccc(Cl)c1)c1ccc2c(c1)N=C(c1ccc(Cl)cc1)c1cc(F)ccc1S2` [drawing 837]: the IC50 under setting [1] is 12.6 nM. Also, the Emax under setting [2] stood at 110%.

`CC(C)CNC(=O)c1ccc2c(c1)N=C(c1ccc(Br)cc1)c1ccccc1S2` [drawing 781]: the Emax under setting [2] was found to be 80%. Also, the IC50 (pIC50, Appendix A) was 10 nM.

For the molecule `O=C(NCc1ccccc1Br)c1ccc2c(c1)N=C(C1CCCCC1)c1ccccc1S2` [drawing 548], the IC50 under setting [1] was 39.8 nM. The Emax under setting [2] amounted to 85%.

`CCONC(=O)c1ccc2c(c1)N=C(c1ccc(Cl)cc1F)c1ccccc1S2`: under setting [1], the IC50 was 200 nM. The Emax under setting [2] turned out to be 87%.

As for `CONC(=O)c1ccc2c(c1)N=C(c1ncccc1C)c1ccccc1S2`, the pIC50 (Appendix A) is reported as 1.0. Under setting [2], the Emax is 8%.

For the molecule `Cc1ccsc1C1=Nc2cc(C(=O)NCc3cccs3)ccc2Sc2ccccc21` [drawing 685], the IC50 under setting [1] was 6.31 nM. Also, the Emax under setting [2] was found to be 114%.

Regarding `CCCC1=Nc2cc(C(=O)NCCCOCC)ccc2Sc2ccccc21`, the IC50 under setting [1] was 50.1 nM. In addition, under setting [2], the Emax turned out to be 92%.

On to `CCOC(=O)c1ccc(C2=Nc3cc(C(=O)NCc4ccncc4)ccc3Sc3ccccc32)cc1`, for which the IC50 under setting [1] is 501 nM. For the same molecule, the Emax under setting [2] amounted to 69%.

The molecule `CONC(=O)c1ccc2c(c1)N=C(c1ccccc1Cl)c1ccccc1S2` displayed a pIC50 (Appendix A) of 1.0. Besides, the Emax under setting [2] was -15%.

Consider `CC(C)CNC(=O)c1ccc2c(c1)N=C(c1cccc(Cl)c1)c1ccccc1S2` [drawing 609], for which, under setting [1], the IC50 is 3.98 nM. For the setting “read-out: % Inhibition, Appendix A, receptor form not stated, relative to SR141716 (100%)”, the Emax was found to be 116%.

In the case of `CC(NC(=O)c1ccc2c(c1)N=C(c1ccccc1)c1ccccc1S2)c1ccccc1` (centres unmarked) [drawing 1147], under setting [1], the IC50 is 39.8 nM. The Emax under setting [2] is 85%.

For `Cc1ccc(CNC(=O)c2ccc3c(c2)N=C(c2ccc(F)cc2)c2ccccc2S3)o1` [drawing 577], under setting [1], the IC50 is 3.16 nM. Also, the Emax under setting [2] was found to be 65%.

As to `Cc1cccnc1C1=Nc2cc(C(=O)NCc3cccs3)ccc2Sc2ccccc21`, the IC50 under setting [1] is 100 nM. Moreover, the Emax under setting [2] is 97%.

Take `CCCC1=Nc2cc(C(=O)N3CCN(c4cc(C)ccc4C)CC3)ccc2Sc2ccccc21`: under setting [1], the IC50 is 158 nM. Also, the Emax under setting [2] is 90%.

With `O=C(NCc1ccc(F)cc1)c1ccc2c(c1)N=C(c1ccc(Cl)cc1)c1ccccc1[S+]2[O-]` (centres unmarked) [drawing 1125], under setting [1], the IC50 is 39.8 nM. Under setting [2], the Emax was found to be 98%.

In the case of `CCCC1=Nc2cc(C(=O)NC)ccc2Sc2ccccc21`, the IC50 under setting [1] was 501 nM. Also, the Emax under setting [2] worked out at 119%.

On to `Cc1cccnc1C1=Nc2cc(C(=O)NCc3ccco3)ccc2Sc2ccccc21`, for which, under setting [1], the IC50 is 316 nM. Under setting [2], the Emax was found to be 83%.

In the case of `COCCNC(=O)c1ccc2c(c1)N=C(c1ccc(Cl)s1)c1ccccc1S2` [drawing 963], under setting [1], the IC50 was 20 nM. The “% Inhibition” value (Appendix A, receptor form not stated, relative to SR141716 (100%)) came out at 95%.

With `CON(C)C(=O)c1ccc2c(c1)N=C(c1ccc(Cl)cc1F)c1ccccc1S2`, the IC50 under setting [1] is 1580 nM. Further, the Emax under setting [2] turned out to be 46%.

As to `Cc1ccc(CNC(=O)c2ccc3c(c2)N=C(c2ccc(Cl)s2)c2ccccc2S3)o1` [drawing 765], the IC50 under setting [1] is 10 nM. Also, the Emax under setting [2] worked out at 92%.

For `CC(NC(=O)c1ccc2c(c1)N=C(c1ccc(F)cc1)c1ccccc1S2)c1ccccc1` (centres unmarked) [drawing 760], under setting [1], the IC50 is 100 nM. Moreover, the Emax under setting [2] is 81%.

With `Cc1ccsc1C1=Nc2cc(C(=O)NCC(C)C)ccc2Sc2ccccc21` [drawing 757], the IC50 under setting [1] is 10 nM. Besides, the Emax under setting [2] was 88%.

For the molecule `COc1ccc(C2=Nc3cc(C(=O)NC4CCCCNC4=O)ccc3Sc3ccccc32)cc1` (centres unmarked), under setting [1], the IC50 was 251 nM. In addition, the Emax under setting [2] was 62%.

In the case of `CCCCC1=Nc2cc(C(=O)NC3CCN(C(=O)OCC)CC3)ccc2Sc2ccccc21`, the IC50 under setting [1] was 501 nM. Also, the Emax under setting [2] was 96%.

In turn, `CCCCN(C)C(=O)c1ccc2c(c1)N=C(c1ncccc1C)c1ccccc1S2` registered a pIC50 (Appendix A) of 1.0. Moreover, under setting [2], the Emax worked out at 14%.

Regarding `Cc1ccsc1C1=Nc2cc(C(=O)NCCC(C)C)ccc2Sc2ccccc21` [drawing 945], the IC50 under setting [1] was 20 nM. For the same molecule, the Emax under setting [2] stood at 106%.

For the molecule `O=C(NCc1ccccc1)c1ccc2c(c1)N=C(c1cccc(Cl)c1)c1ccccc1S2` [drawing 717], under setting [1], the IC50 was 7.94 nM. Moreover, under setting [2], the Emax was 106%.

Regarding `O=C(NCCc1ccc(Cl)cc1)c1ccc2c(c1)N=C(N1CCC(F)CC1)c1ccccc1S2` [drawing 1119], under setting [1], the IC50 is 39.8 nM. In addition, under setting [2], the Emax turned out to be 103%.

Take `CCCC1=Nc2cc(C(=O)NC3CCCC(C)C3C)ccc2Sc2ccccc21` (centres unmarked) [drawing 1115]: the Emax under setting [2] stood at 101%. For the same molecule, the IC50 (pIC50, Appendix A) was 39.8 nM.
